The source of these data is ChEMBL document CHEMBL1153271, “3,4-Diamino-1,2,5-thiadiazole as potent and selective CXCR2 antagonists” (Bioorg Med Chem Lett, 2009).

The target of assay [1] is T1, C-X-C chemokine receptor type 2 (Homo sapiens, UniProt P25025).
T1 sequence (P25025 whole entry): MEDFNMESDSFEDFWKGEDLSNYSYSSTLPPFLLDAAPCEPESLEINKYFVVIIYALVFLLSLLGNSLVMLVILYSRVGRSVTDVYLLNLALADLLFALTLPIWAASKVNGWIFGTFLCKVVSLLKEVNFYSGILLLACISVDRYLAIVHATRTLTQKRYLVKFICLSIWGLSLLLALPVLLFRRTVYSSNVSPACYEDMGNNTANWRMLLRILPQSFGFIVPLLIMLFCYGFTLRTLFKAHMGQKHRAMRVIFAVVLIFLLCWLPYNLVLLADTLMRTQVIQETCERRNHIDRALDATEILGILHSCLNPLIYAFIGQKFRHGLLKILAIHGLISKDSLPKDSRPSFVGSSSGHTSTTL
As to the kind of experiment: Displacement of IL8 from CXCR2 receptor.

The target of assay [2] is T2, C-X-C chemokine receptor type 1 (Homo sapiens, UniProt P25024).
T2 sequence (P25024 whole entry): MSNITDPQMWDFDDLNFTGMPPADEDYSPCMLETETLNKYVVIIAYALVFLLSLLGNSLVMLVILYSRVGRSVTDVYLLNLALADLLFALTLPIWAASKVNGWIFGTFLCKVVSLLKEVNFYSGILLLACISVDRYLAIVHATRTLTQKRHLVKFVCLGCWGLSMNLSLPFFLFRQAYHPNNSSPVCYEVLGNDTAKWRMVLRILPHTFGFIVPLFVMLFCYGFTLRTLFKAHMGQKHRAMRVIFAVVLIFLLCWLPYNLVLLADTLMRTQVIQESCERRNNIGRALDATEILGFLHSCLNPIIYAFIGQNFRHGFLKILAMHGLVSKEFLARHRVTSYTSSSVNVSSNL
Nature of the assay: Displacement of IL8 from CXCR1 receptor.

Assay [3] deals with T1, C-X-C chemokine receptor type 2. Nature of the assay: Displacement of [125I]CXCL1 from CXCR2 receptor in human PMN assessed as myeloperoxidase release.
Assay [4] has as its target T2, C-X-C chemokine receptor type 1. As to the kind of experiment: Displacement of [125I]CXCL8 from CXCR1 receptor in human PMN assessed as myeloperoxidase release.

In assay [1], `CC[C@@H](Nc1nsnc1Nc1cccc(C(=O)N(C)C)c1O)c1cc(C)co1` gave an inhibitory constant (Ki) of 2280 nM.

On to `Cc1ccc([C@H](Nc2nsnc2Nc2cccc(C(=O)N(C)C)c2O)C(F)(F)F)o1`, for which the Ki stood at 10000 nM in assay [1] and 53 nM in assay [2].

Regarding `Cc1ccc([C@H](Nc2nsnc2Nc2cccc(C(=O)N(C)C)c2O)C(C)(C)C)o1`, the Ki in assay [1] was 91 nM. Also, the IC50 in assay [3] is 21 nM.

As to `CC[C@@H](Nc1nsnc1Nc1cccc(C(=O)N(C)C)c1O)c1cc(F)cc(F)c1`, the inhibition constant Ki in assay [1] was determined as 4100 nM.

In turn, `CN(C)C(=O)c1cccc(Nc2nsnc2N[C@@H](c2ccccc2)C2CC2)c1O` had a Ki in assay [1] of 2030 nM. This Ki lies about 2-fold lower than the previous one.

On to `Cc1ccc([C@H](Nc2nsnc2Nc2cccc(C(=O)N(C)CCC#N)c2O)C(C)(C)C)o1`, for which the inhibitory constant (Ki) in assay [1] was 114 nM; in assay [2], 13 nM.

On to `CC(C)c1coc([C@H](Nc2nsnc2Nc2cccc(C(=O)N(C)CCC#N)c2O)C(C)(C)C)c1`, for which, in assay [1], the Ki came out at 79 nM.

Regarding `CN(CCC#N)C(=O)c1cccc(Nc2nsnc2N[C@@H](c2ccco2)C(C)(C)C)c1O`, in assay [1], the Ki turned out to be 44 nM.

Compound `Cc1ccc([C@H](Nc2nsnc2Nc2cccc(C(=O)N(C)C)c2O)C(C)C)s1` displayed a Ki in assay [1] of 1300 nM.

As to `CC[C@@H](Nc1nsnc1Nc1ccc(C(F)(F)F)c(C(=O)N(C)C)c1O)c1ccc(C)o1`, in assay [1], affinity was put at a Ki of 749 nM. Compared with the last compound, the Ki is about 1.7-fold lower.

`C[C@H](Nc1nsnc1Nc1cccc(C(=O)N(C)C)c1O)C(C)(C)C` had an inhibition constant Ki in assay [1] of 10000 nM.

The compound `CC[C@@H](Nc1nsnc1Nc1cccc(C(=O)N(C)C)c1O)c1ccccc1` showed a Ki in assay [1] of 5110 nM.

In the case of `CN(C)C(=O)c1cccc(Nc2nsnc2N[C@@H](c2ccc3c(c2)OCCO3)C(C)(C)C)c1O`, the Ki in assay [1] is 10000 nM.

Consider `CN(C)C(=O)c1cccc(Nc2nsnc2N[C@@H](c2cccc(F)c2)C(C)(C)C)c1O`, for which the values for the Ki in assay [1] and in assay [2] were 1300 nM and 78 nM, respectively.

In assay [1], `CN(C)C(=O)c1cccc(Nc2nsnc2N[C@@H](c2ccco2)C(C)(C)C)c1O` came in with a Ki of 381 nM.

Regarding `Cc1ccc([C@H](Nc2nsnc2Nc2cccc(C(=O)N(C)C)c2O)C(C)C)o1`, the Ki in assay [1] was determined as 2400 nM; in assay [2], 15 nM. In addition, the 50% inhibitory concentration (IC50) in assay [3] amounted to 36 nM; in assay [4] it was 3910 nM.

As for `CN(C)C(=O)c1cccc(Nc2nsnc2NC(c2ccccc2)C(F)(F)F)c1O` (stereo not drawn), the Ki was 4300 nM in assay [1] and 36 nM in assay [2].

With `CN(C)C(=O)c1cccc(Nc2nsnc2N[C@@H](c2cc3ccccc3o2)C(C)(C)C)c1O`, the Ki in assay [1] was determined as 2360 nM.

Regarding `CC[C@@H](Nc1nsnc1Nc1cccc(C(=O)N(C)C)c1O)c1ccc(C)o1`, the Ki in assay [1] came to 3000 nM.

As to `CN(C)C(=O)c1cccc(Nc2nsnc2N[C@@H](c2ccc3c(c2)CCC3)C(C)(C)C)c1O`, the Ki in assay [1] turned out to be 10000 nM.

Consider `Cc1ccc([C@H](Nc2nsnc2Nc2cccc(C(=O)N3CCOCC3)c2O)C(C)(C)C)o1`, for which, in assay [1], the Ki was 1270 nM.

As to `Cc1ccc([C@H](Nc2nsnc2Nc2ccc(C(F)(F)F)c(C(=O)N(C)C)c2O)C(C)(C)C)o1`, the Ki in assay [1] amounted to 168 nM; in assay [2] it was 38 nM.

Regarding `CN(C)C(=O)c1cccc(Nc2nsnc2N[C@@H](c2ccc3c(c2)OCO3)C(C)(C)C)c1O`, the Ki in assay [1] is 330 nM; in assay [2], 52 nM.

For orientation: Ki means the equilibrium dissociation constant of an inhibitor or competing ligand from its target. As usually defined, the IC50 is the concentration needed to halve the response being measured.
